Laboratory results taken from paper PMC10458236, “QSAR and Chemical Read-Across Analysis of 370 Potential MGMT Inactivators to Identify the Structural Features Influencing Inactivation Potency” (Pharmaceutics, 2023).

Target: T1, human recombinant MGMT (O^6-methylguanine-DNA methyltransferase) (Homo sapiens, UniProt P16455)
T1 construct: recombinant
T1 sequence (P16455 1-207): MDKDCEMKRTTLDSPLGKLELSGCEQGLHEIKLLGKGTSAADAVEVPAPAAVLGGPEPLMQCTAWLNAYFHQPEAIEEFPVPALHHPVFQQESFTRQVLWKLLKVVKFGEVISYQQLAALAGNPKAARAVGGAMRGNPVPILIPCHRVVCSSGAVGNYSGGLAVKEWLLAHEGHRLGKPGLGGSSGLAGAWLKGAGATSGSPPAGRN
Assay: [3H]-methylated-DNA MGMT inactivation assay
Format: biochemical

Row | IC50 | Compound
1 | 2.82 nM | CCCOC(=O)n1cc2c(OCc3cc(Br)cs3)nc(N)nc2n1 [compound 411]
2 | 3.02 nM | N#Cc1csc(COc2nc(N)nc3[nH]cnc23)c1 [compound 90]
